According to US11980595B2, “Preventive or therapeutic agent and pharmaceutical composition for inflammatory diseases or bone diseases” (National University Corporation Chiba University, priority 2018, dated 2024):

Legend:
[1] = tested on: social defeat stress mice; experiment: Femur bone density by X-ray CT in social defeat stress mice; assay type: in vivo; settings: Experimental Example 11, 10 mg/kg i.p. once, D15, compared to saline
[2] = tested on: RANKL; experiment: Plasma RANKL and OPG/RANKL ratio in social defeat stress mice (ELISA); settings: for RANKL concentration in plasma / OPG/RANKL ratio: compared to saline; for therapeutic effect (restoring abnormally high expression of RANKL to a normal value): summary of Experimental Example 11, 10 mg/kg i.p. once; for restoring abnormally high expression of RANKL to a normal value: summary of Experimental Example 6, 10 mg/kg i.p. once
[3] = tested on: social defeat stress mice; experiment: Behavioral rating (tail suspension, forced swimming, sucrose preference tests) in social defeat stress mice; settings: Experimental Example 11, 10 mg/kg i.p. once on D12, tests D12-D14, compared to saline
[4] = tested on: DSS-treated mice, the ulcerative colitis animal model; experiment: Disease condition score in DSS ulcerative colitis model mice; settings: for disease condition score: 3% DSS mice, scored day 7, 10, 12, 14
[5] = tested on: Interleukin (IL)-6; experiment: Inflammatory cytokine IL-6 in plasma of DSS ulcerative colitis model mice (ELISA); assay type: in vivo; settings: for IL-6 concentration in blood: 3% DSS mice, plasma day 15, compared to DSS+saline
Source text: Furthermore, after the blood collection was completed, the mice in each group were euthanized by exsanguination under isoflurane anesthesia.
(§1) Interleukin (IL)-6 was quantified as the inflammatory cytokine. IL-6 was quantified by ELISA method using a commercially available kit.
Furthermore, after blood collection was completed, the mice in each group were euthanized by exsanguination under isoflurane anesthesia.
as §1

[6] = tested on: ovariectomized mice; experiment: Femur bone density by X-ray CT in ovariectomized mice (osteoporosis model); assay type: in vivo; settings: Experimental Example 13, 10 mg/kg i.p. Monday and Thursday, 6 weeks after surgery, compared to saline
Source text: The effect of R-ketamine was examined using ovariectomized mice as a model animal for osteoporosis.

[7] = tested on: sRANKL-administered mice; experiment: Femur bone density by X-ray CT in sRANKL-administered mice (osteoporosis model); settings: Experimental Example 12, sRANKL (1 mg/kg) mice, 10 mg/kg i.p. 30 minutes before sRANKL and 24 and 48 hours after
[8] = tested on: DSS-treated mice, the ulcerative colitis animal model; experiment: Colonic inflammation score in DSS ulcerative colitis model mice; assay type: in vivo; settings: 3% DSS mice, 10 mg/kg i.p. once a day for 14 days, day 15
Description: The mice from each group that had been euthanized were resected from cecum to anus, and a length from directly below the cecum to the anus was measured. Subsequently, the lumen of the colon was washed with saline, and after washing, an incision was made in the longitudinal direction, and a colonic inflammation score was determined according to the following evaluation criteria.
The mice from each group that had been euthanized were resected from the cecum to the anus, and the length from directly below the cecum to the anus was measured.

[9] = tested on: NMDA receptors; settings: S-ketamine compared to R-ketamine; cited from earlier work
[10] = Experimental Example 11, 10 mg/kg i.p. once, plasma three days after (D15)
[11] = Experimental Example 2, 10 mg/kg i.p. once a day for 14 days
[12] = summary of Experimental Examples 1 to 4, intraperitoneal 10 mg/kg
[13] = Experimental Example 4, 10 mg/kg i.p. once a day for 14 days
[14] = Experimental Example 6, 10 mg/kg i.p. once, four days after
[15] = Experimental Example 6, 10 mg/kg i.p. once, plasma four days after

Row | Compound | cortical bone density [1] | total bone density [1] | RANKL concentration in plasma [2, 10] | therapeutic effect (restoring abnormally high expression of RANKL to a normal value) [2] | antidepressant effect (tail suspension test, forced swimming test, sucrose preference test) [3] | disease condition score [4, 11] | therapeutic effect in ulcerative colitis animal model [4, 12] | IL-6 concentration in blood [5, 13] | OPG/RANKL ratio [2, 14] | RANKL concentration in plasma [2, 15] | restoring abnormally high expression of RANKL to a normal value [2] | other results
1 | N[C@@]1(c2ccccc2Cl)CCC[C@@H](O)C1=O [2R,6R-HNK, 2R,6R-hydroxynorketamine] | no significant change | no significant change | a significant change to RANKL concentration in plasma was not observed | no therapeutic effect was observed | no antidepressant effect | – | – | – | – | – | – | OPG/RANKL ratio ([2]; Experimental Example 11, 10 mg/kg i.p. once, three days after (D15), 10 mg/kg): a significant change to the OPG/RANKL ratio was not observed
2 | Nc1ccc(O)c(C(=O)O)c1 [5-ASA, 5-aminosalicylic acid, reference compound] | – | – | – | – | – | – | – | – | – | – | – | disease condition score ([4]; Experimental Example 8, 50 mg/kg i.p. once a day for 14 days, compared to DSS and saline): improvement tendency of the disease condition score was observed in the “DSS+5-ASA” group, but it was not significant; therapeutic effect in ulcerative colitis animal model ([4]; summary of Experimental Examples 7 to 10, intraperitoneal 50 mg/kg): extremely weak therapeutic effect; IL-6 concentration in blood ([5]; Experimental Example 10, 50 mg/kg i.p. once a day for 14 days): a significant decrease of IL-6 concentration in blood was not observed
3 | CN[C@@]1(c2ccccc2Cl)CCCCC1=O [R-ketamine] | significantly improved | significantly improved | significantly decreased | able to restore an abnormally high expression of RANKL to a normal value | significantly higher antidepressant effect | significant improvement of the disease condition score | exhibited a therapeutic effect | significant decrease of IL-6 concentration in blood | significantly increased | significantly decreased | able to restore an abnormally high expression of RANKL to a normal value | cancellous bone density [6]: tended to increase along with R-ketamine administration, but it was not statistically significant; cortical bone density [6]: significantly improved; plane bone density [6]: tended to increase along with R-ketamine administration, but it was not statistically significant; total bone density [6]: significantly improved; disease condition score ([4]; Experimental Example 8, 10 mg/kg i.p. once a day for 14 days, compared to DSS and saline): significant improvement of the disease condition score; therapeutic effect in ulcerative colitis animal model ([4]; summary of Experimental Examples 7 to 10, intraperitoneal 10 mg/kg): significant therapeutic effect; effect of reducing IL-6 in blood, R-ketamine compared to S-ketamine [5, 13]: higher than when administering S-ketamine; IL-6 concentration in blood ([5]; Experimental Example 10, 10 mg/kg i.p. once a day for 14 days): a significant decrease of IL-6 concentration in blood was observed; cancellous bone density [7]: significantly increased; cortical bone density ([7]; compared to saline): significantly improved; total bone density ([7]; compared to saline): significantly improved; colonic inflammation score ([8]; Experimental Example 3, compared to DSS+S-ketamine group): significant improvement of the colonic inflammation score; colonic inflammation score ([8]; Experimental Example 9, compared to DSS+5-ASA (50 mg/kg) group): significant improvement of the colonic inflammation score; OPG/RANKL ratio ([2]; Experimental Example 11, 10 mg/kg i.p. once, three days after (D15)): significantly increased
4 | CN[C@]1(c2ccccc2Cl)CCCCC1=O [S-ketamine] | – | – | – | – | – | improvement tendency of the disease condition score was observed in the “DSS+S-ketamine” group, but it was not significant | exhibited a tendency for a therapeutic effect in the ulcerative colitis animal model, but the effect was weaker than that of R-ketamine | significant decrease of IL-6 concentration in blood | a significant change to the OPG/RANKL ratio was not observed | a significant change to RANKL concentration in plasma was not observed | such an effect was not observed | affinity for NMDA receptors [9]: stronger affinity for NMDA receptors than R-ketamine
